Values quoted from earlier work, collected in article PMC7395068, “The evolution of strategies to minimise the risk of human drug-induced liver injury (DILI) in drug discovery and development” (Archives of Toxicology, 2020).
Like-named read-outs stand apart in the source and are kept apart here.

How the values were obtained:
[1] = system: HepG2 C3A spheroid, BSEP, Glu/Gal in HepG2 cells, bioactivation; settings: cited from earlier work
[2] = cited from earlier work
[3] = system: THLE or HepG2 cells, isolated mitochondria, BSEP; settings: In vitro Assay; ref Aleo 2019; cited from earlier work
[4] = ref Chen 2016; cited from earlier work
PHH = settings: In vitro Assay; ref Proctor 2017; cited from earlier work
hLiMTs = settings: In vitro Assay; ref Proctor 2017; cited from earlier work
[5] = system: THLE-Null and THLE-3A4 cells; settings: In vitro Assay; ref Gustafsson 2014; cited from earlier work
HepG2 cells [6] = settings: cited from earlier work; for Cluser analysis / Structural based (HCI): In vitro Assay, ref Persson 2013
[7] = system: primary human hepatocytes, NIH3T3 fibroblasts, BSEP, CYP3A4; settings: In vitro Assay; ref Schadt 2015; cited from earlier work
rBsep = settings: In vitro Assay; ref Dawson 2012; cited from earlier work
HepG2 cells [8] = settings: In vitro Assay; ref O'Brien 2006; cited from earlier work
[9] = In vitro Assay, ref Williams 2019

| Compound | Bayesian Machine Learning ([1]; ref Williams 2019) | In vivo DILI ([2]; ref Aleo 2019) | In vivo DILI ([2]; ref Proctor 2017) | In vivo DILI ([2]; ref Williams 2019) | Ro2 Hybrid HRM Score [3] | DILI +VE (5-8), DILI -VE (-4) [4] | DILI severity category [4] | PHH ATP <100uM (PHH) | hLiMTs ATP <100uM (hLiMTs) | Bayesian Machine Learning [1, 9] | THLE-Null [5] | other results |
| --- | --- | --- | --- | --- | --- | --- | --- | --- | --- | --- | --- | --- |
| CC(C)(C)NCC(O)c1ccc(O)c(CO)c1 (stereo not drawn) [albuterol] | -VE | -VE | -VE | -VE | -VE | – | – | – | – | – | – | Partition Hybrid HRM Score [3]: -VE |
| Cc1c(N(C)C)c(=O)n(-c2ccccc2)n1C [aminopyrine] | +VE | – | – | – | – | – | – | – | – | – | – | – |
| CN1[C@@H]2CC[C@H]1C[C@@H](OC(c1ccccc1)c1ccccc1)C2 [benztropine] | -VE | -VE | -VE | -VE | -VE | -VE | vNo-DILI-Concern | +VE (IC50 threshold of 100 µM) | +VE (IC50 threshold of 100 µM) | – | – | – |
| Nc1c(CC(=O)O)cccc1C(=O)c1ccc(Br)cc1 [bromfenac, reference compound] | – | +VE | – | +VE | +VE | +VE | vMost-DILI-Concern | – | – | +VE | -VE | THLE-Null/3A4 [5]: -VE; Cluser analysis (HepG2 cells [6]): -VE; Structural based (HCI) (HepG2 cells [6]): -VE; DILI in vitro assay prediction, Persson (2013) (HepG2 cells [6]; Structural based (HCI), HepG2, ref Persson et al. 2013): negative; Cellular toxicity (3T3 cells) [7]: -VE; Combined Assay [7]: -VE; GSH adduct HML [7]: -VE; Hepatocyte cellular toxicity [7]: -VE; MitoTox 3T3 [7]: -VE; TDI CYP3A4 [7]: -VE; hBSEP inhibition [7]: -VE; In vivo DILI ([2]; […]): +VE; In vivo DILI ([2]; ref Gustafsson 2014): +VE; In vivo DILI ([2]; ref Persson 2013): +VE; In vivo DILI ([2]; ref Schadt 2015): +VE; Partition Hybrid HRM Score [3]: +VE |
| N[C@@H]1CON=C1O [cycloserine] | – | – | – | – | – | – | – | – | – | -VE | -VE | Inhibition of rBsep cutoff<1& cmax u>.2 (rBsep): -VE; Inhibition of rBsep cutoff<3 (rBsep): -VE |
| O=C1[C@H](CC[C@H](O)c2ccc(F)cc2)[C@@H](c2ccc(O)cc2)N1c1ccc(F)cc1 [ezetimibe] | – | – | – | +VE | – | +VE | vLess-DILI-Concern | – | – | -VE | – | – |
| Cc1onc(-c2c(F)cccc2Cl)c1C(=O)N[C@@H]1C(=O)N2[C@@H]1SC(C)(C)[C@@H]2C(=O)O [flucloxacillin] | – | – | +VE | +VE | – | – | – | +VE (IC50 threshold of 100 µM) | -VE | +VE | -VE | THLE-Null/3A4 [5]: -VE; In vivo DILI ([2]; ref Dawson 2012): +VE; In vivo DILI ([2]; ref Gustafsson 2014): +VE; Inhibition of rBsep cutoff<1& cmax u>.2 (rBsep): -VE; Inhibition of rBsep cutoff<3 (rBsep): -VE |
| Nc1nc(F)nc2c1ncn2[C@@H]1O[C@H](CO)[C@@H](O)[C@@H]1O [fludarabine] | – | – | -VE | -VE | – | -VE | vNo-DILI-Concern | -VE | +VE (IC50 threshold of 100 µM) | – | – | Bayesian Machine Learning [1]: -VE |
| O=C(NC1CCN(CCc2c[nH]c3ccccc23)CC1)c1ccccc1 [indoramin] | -VE | – | -VE | -VE | – | – | – | -VE | -VE | – | – | – |
| CCC(C)n1ncn(-c2ccc(N3CCN(c4ccc(OCC5COC(Cn6cncn6)(c6ccc(Cl)cc6Cl)O5)cc4)CC3)cc2)c1=O (stereo not drawn) [itraconazole] | – | – | +VE | +VE | – | +VE | vMost-DILI-Concern | -VE | +VE (IC50 threshold of 100 µM) | +VE | – | Structural based (HCI) (HepG2 cells [8]): +VE; Cluser analysis (HepG2 cells [6]): +VE; Structural based (HCI) (HepG2 cells [6]): +VE; Cellular toxicity (3T3 cells) [7]: -VE; Combined Assay [7]: +VE; GSH adduct HML [7]: -VE; Hepatocyte cellular toxicity [7]: -VE; MitoTox 3T3 [7]: +VE; TDI CYP3A4 [7]: -VE; hBSEP inhibition [7]: -VE; In vivo DILI ([2]; ref O'Brien 2006): +VE; In vivo DILI ([2]; ref Persson 2013): +VE; In vivo DILI ([2]; ref Schadt 2015): +VE |
